Assay results published in patent US20050197350A1, “Novel quinoline, tetrahydroquinazoline, and pyrimidine derivatives and methods of treatment related to the use thereof” (TAISHO PHARMACEUTICAL CO., LTD., priority 2003, published 2005).

These compounds were tested on MCH receptors (assay: MCH receptor activity class (method not given)). Settings: MCH receptor activity class 1-3 (percent of control at 10^-7 M or IC50).
In the case of Cc1c(Cl)cccc1NC(=O)NC[C@H]1CC[C@@H](Nc2nc3c(c(N(C)C)n2)CCCC3)CC1 [compound 2477], the class is reported as 2 (Class 2: The value of percent of control at 10^−7 M was from 40% to 60% or the value of IC′50 was from 50 nM to 200 nM.).
In the case of CN(C)c1nc(N[C@H]2CC[C@@H](CNC(=O)Nc3c(F)cc(Br)cc3F)CC2)nc2c1CCCC2 [compound 2478], the class is reported as 3 (Class 3 The value of percent of control at 10^−7 M was more than 60% or the value of IC50 was more than 200 nM.).
CN(C)c1nc(N[C@H]2CC[C@@H](CNC(=O)Nc3ccc(Cl)cc3C(F)(F)F)CC2)nc2c1CCCC2 [compound 2479] was tested, and the class was 3 (Class 3 The value of percent of control at 10^−7 M was more than 60% or the value of IC50 was more than 200 nM.).
CN(C)c1nc(N[C@H]2CC[C@@H](CNC(=O)Nc3ccc(C#N)cc3)CC2)nc2c1CCCC2 [compound 2480] was tested, and the class was 3 (Class 3 The value of percent of control at 10^−7 M was more than 60% or the value of IC50 was more than 200 nM.).
For CN(C)c1nc(N[C@H]2CC[C@@H](CNC(=O)NC(c3ccccc3)c3ccccc3)CC2)nc2c1CCCC2 [compound 2481], the class was 3 (Class 3 The value of percent of control at 10^−7 M was more than 60% or the value of IC50 was more than 200 nM.).

Same assay, conditions: class by percent of control at 10^-7 M or IC50
For Cc1cc(Br)cc(C)c1NC(=O)NC[C@H]1CC[C@@H](Nc2nc3c(c(N(C)C)n2)CCCC3)CC1 [compound 2482, N-(4-bromo-2,6-dimethylphenyl)-N′-[(cis-4-{[4-(dimethylamino)-5,6,7,8-tetrahydroquinazolin-2-yl]amino}cyclohexyl)methyl]urea], the class was 1 (Class 1: The value of percent of control at 10^−7 M was less than 40% or the value of IC50 was less than 50 nM.).
For Cc1noc(-c2ccccc2)c1NC(=O)NC[C@H]1CC[C@@H](Nc2nc3c(c(N(C)C)n2)CCCC3)CC1 [compound 2483], the class was 3 (Class 3 The value of percent of control at 10^−7 M was more than 60% or the value of IC50 was more than 200 nM.).
For Cc1cc(NC(=O)NC[C@H]2CC[C@@H](Nc3nc4c(c(N(C)C)n3)CCCC4)CC2)c(C(F)(F)F)o1 [compound 2484], the class was 3 (Class 3 The value of percent of control at 10^−7 M was more than 60% or the value of IC50 was more than 200 nM.).
In the case of CN(C)c1nc(N[C@H]2CC[C@@H](CNC(=O)Nc3cc(Cl)cc(Cl)c3)CC2)nc2c1CCCC2 [compound 2485], the class is reported as 3 (Class 3 The value of percent of control at 10^−7 M was more than 60% or the value of IC50 was more than 200 nM.).
In the case of CN(C)c1nc(N[C@H]2CC[C@@H](CNC(=O)Nc3cccc(Cl)c3Cl)CC2)nc2c1CCCC2 [compound 2486], the class is reported as 3 (Class 3 The value of percent of control at 10^−7 M was more than 60% or the value of IC50 was more than 200 nM.).
For Cc1ccc(NC(=O)NC[C@H]2CC[C@@H](Nc3nc4c(c(N(C)C)n3)CCCC4)CC2)cc1 [compound 2487], the class was 3 (Class 3 The value of percent of control at 10^−7 M was more than 60% or the value of IC50 was more than 200 nM.).
In the case of CC(C)c1cccc(C(C)C)c1NC(=O)NC[C@H]1CC[C@@H](Nc2nc3c(c(N(C)C)n2)CCCC3)CC1 [compound 2488, N-(2,6-diisopropylphenyl)-N′-[(cis-4-{[4-(dimethylamino)-5,6,7,8-tetrahydroquinazolin-2-yl]amino}cyclohexyl)methyl]urea], the class is reported as 2 (Class 2: The value of percent of control at 10^−7 M was from 40% to 60% or the value of IC′50 was from 50 nM to 200 nM.).
With Cc1ccc([N+](=O)[O-])c(NC(=O)NC[C@H]2CC[C@@H](Nc3nc4c(c(N(C)C)n3)CCCC4)CC2)c1C [compound 2489] the class was 2 (Class 2: The value of percent of control at 10^−7 M was from 40% to 60% or the value of IC′50 was from 50 nM to 200 nM.).
For CN(C)c1nc(N[C@H]2CC[C@@H](CNC(=O)Nc3c(Br)cc(F)cc3Br)CC2)nc2c1CCCC2 [compound 2490, N-(2,6-dibromo-4-fluorophenyl)-N′-[(cis-4-{[4-(dimethylamino)-5,6,7,8-tetrahydroquinazolin-2-yl]amino}cyclohexyl)methyl]urea], the class was 1 (Class 1: The value of percent of control at 10^−7 M was less than 40% or the value of IC50 was less than 50 nM.).
